Tests used:
[1] = test system: SUM-149 cells; experiment: Annexin V/7-AAD apoptosis detection; type: cell-based, human; conditions: 48 h
Experimental: SUM-149 cells (5 × 10^5) were seeded and treated either with vehicle (0.1% DMSO) or with 20 μM of EP or with puromycin (200 ng/mL) as positive control for 48 h. After treatment floating cells were collected, and all cells were harvested and counted. Treated cells were analyzed for cell death by using the FITC Annexin-V/7AAD Apoptosis detection kit (product #640922, Biolegend, San Diego, CA, United States) according to the manufacturer’s instructions. Briefly, cells were resuspended in Annexin Binding Buffer, stained with Annexin V-FITC and/or 7-AAD, and incubated for 30 min at 4°C. Data were acquired on a BD FACS Canto II cytometer (BD Biosciences, San José, CA, United States) and analyzed by using FlowJo software (V10, FlowJo, LLC, Ashland, OR, United States).

[2] = test system: AKT isoforms, BCL-XL, Cyclin D1, c-Myc, PARP in SUM-149 cells; experiment: Immunoblots of signaling proteins; type: cell-based, human
From the text: Breast cancer cells treated with vehicle or EP were lysed, and equal total protein was resolved via SDS-PAGE and immunoblotted with indicated antibodies (Cell Signaling Technologies, Abcam, Sigma) as described previously ([Castillo-Pichardo et al., 2009]; [Martinez-Montemayor et al., 2011]; [Suarez-Arroyo et al., 2016]).

[3] = test system: SUM-149 cells; experiment: Cell migration assay (Boyden chamber); type: cell-based, human; conditions: 10 μM, 72 h
Experimental: Cell migration and invasion were measured by using Corning® FluoroBlok^TM Cell Culture Inserts and performing BD BioCoat Matrigel invasion assays (BD Biosciences, San José, CA, United States) as described in [Martinez-Montemayor et al. (2011)] and [Suarez-Arroyo et al. (2016)].

[4] = Solubility in DMSO or water; conditions: unless warmed up to 30°C
[5] = test system: SUM-149 cells; experiment: Cell cycle assay (PI, flow cytometry); type: cell-based, human; conditions: 48 h
Experimental: SUM-149 cells were treated for 48 h with EP, then collected and washed in 1X PBS. The cells (5 × 10^5) were fixed and permeabilized in 70% ethanol at -20°C until further analysis. To measure the DNA content, the cells were washed and resuspended in 150 μL of PBS buffer then incubated in 100 μL of 100 μg/mL RNase A (MilliporeSigma, Burlington, MA, United States) for 15 min at RT, then 250 μL of 50 μg/mL Propidium Iodide (MilliporeSigma) was added. Samples were incubated at RT for 10 min and analyzed on a BD FACS Canto II flow cytometer (BD Biosciences, San José, CA, United States). Data were analyzed by using FlowJo software (V10, FlowJo, LLC, Ashland, OR, United States).

[6] = test system: Uocb-1 cells; experiment: Cell Titer Glo viability assay, Uocb-1; type: cell-based; conditions: Homo sapiens, UoC-B1, 72-h treatment
Experimental: (§1) Either 1 × 10^3–4.8 × 10^3 or 4 × 10^2–1.2 × 10^3 cells were seeded to each well of 96- or 384-well white polystyrene flat-bottomed plates (3610 or 8804BC, Corning) in 100 μL or 30 μL media per well, respectively. The concentrations used were experimentally determined to ensure logarithmic growth during the duration of the experiment and prevent adverse effects on cell growth by DMSO exposure. The plates were incubated at 37°C in 5% CO2 for 24 h before treatment. Stock solutions of test compounds (10 mM in DMSO) in nine 3-fold serial dilutions were dispensed via pintool (Biomek). The final concentration of DMSO was 0.3% (v/v) in each well. […] Luminescence was recorded in an Envision plate reader (PerkinElmer).
(§2) For the CTG assay, 3 or 4 replicate assays were conducted for each experimental condition, and a minimum of 3 independent experiments were conducted for cellular assays. The mean luminescence of each experimental treatment group was normalized as a percentage of the mean intensity of untreated controls. EC50 values (μM) were calculated by Pipeline Pilot Software (Accelrys, Enterprise Platform, San Diego, CA, United States). EC50 values (μM) from the viability assay were calculated from dose response curve-fitting via non-linear regression by using GraphPad Prism (Version 7.0, San Diego, CA, United States). […]

[7] = test system: SUM-190 cells; experiment: Cell viability assay, SUM-190; type: cell-based; conditions: Homo sapiens, SUM190; Figure 4E
Experimental: as §1, with “(PerkinElmer). […]” for “(PerkinElmer).”
as §2

[8] = test system: SUM-149 cells; experiment: Colony formation assay; type: cell-based, human; conditions: 72 h treatment, 5–40 μM, 10 days culture
Experimental: SUM-149 cells (1.5 × 10^6 cells/well) were plated on a 6-well plate. Two days later, cell media was changed to 5% FBS, and cells were incubated at 37°C in a 5% CO2 atmosphere for 1 h before vehicle (0.1% DMSO) or EP (5–40 μM) was added. After 72 h of treatment, cells were trypsinized and reseeded at 200 cells/mL per well in 24-well plates. After 10 days of culture, colonies were visualized by crystal violet staining, and the colony numbers were counted under a microscope.

Structure (SMILES): CC(C)[C@@H](C)/C=C/[C@@H](C)[C@H]1CC[C@@H]2[C@]1(C)CC[C@H]1[C@]23C=C[C@]2(C[C@@H](O)CC[C@]12C)OO3 [EP, ergosterol peroxide]
- Early apoptotic cells ([1]; 20μM): 50.1%
- Late apoptotic cells ([1]; 20μM): 3.2%
- Live cells ([1]; 20μM): 45.9%
- decrease of live cells (Annexin-, 7AAD-) ([1]; vs vehicle): ~15%
- AKT3 levels ([2]; SUM-149): not affecting AKT3 levels
- p-AKT2 ([2]; SUM-149): without affecting p-AKT2
- PARP cleavage ([2]; SUM-149, 30 μM, 24 h): induces PARP cleavage
- total PARP levels ([2]; SUM-149, 30 μM, 24 h): significantly reduces total PARP levels
- AKT2 levels ([2]; SUM-149, 72 h): decreases
- expression of BCL-XL ([2]; SUM-149, 72 h): significantly reduces
- expression of Cyclin D1 ([2]; SUM-149, 72 h): significantly reduces
- expression of c-Myc ([2]; SUM-149, 72 h): significantly reduces
- expression of p-AKT1 (Ser 473) ([2]; SUM-149, 72 h): significantly decreases
- total AKT1 levels ([2]; SUM-149, 72 h): decreases total AKT1
- cancer cell migration [3]: decreases cancer cell migration
- solubility properties in DMSO or water [4]: poor
- percentage of cells in G0 ([5]; 20μM): 1.7%
- percentage of cells in G1 ([5]; 20μM): 81%
- percentage of cells in G2/M ([5]; 20μM): 9.8%
- percentage of cells in S ([5]; 20μM): 5.4%
- increase in percentage of cells in G1 phase ([5]; vs vehicle): ~20%
- reduction of the percentage of cells in G2/M ([5]; vs vehicle): ~10%
- EC50 [6]: 13.6 µM
- EC50 [7]: 43 µM
- number and size of colonies formed [8]: concentration-dependent decrease
